# According to US20240034736A1, “HSD17B13 INHIBITORS AND USES THEREOF” (FL2022-001, Inc., priority 2020, published 2024):
# Target: Recombinant human HSD17B13 enzyme (Homo sapiens (Human), UniProt Q7Z5P4)
# Assay: HSD17b13 NAD(P)H-Glo Biochemical Assay
# Conditions: 50 uM estradiol, 1 mM NAD+; read-out: HSD17β13 IC50
# Method: Recombinant human HSD17B13 enzyme. Substrate: estradiol (Sigma β-Estradiol E8875), 100 mM in DMSO. […] Assay buffer final concentration: 20 mM Tris pH7.4 with 0.002% Tween-20 and 0.02% BSA. […] Enzymatic activity detected by NAD(P)H-Glo™ Detection System (Promega G9062).
# Inhibitor compounds were serially diluted in DMSO and then further diluted in assay buffer to a 10× concentration consisting of 1% DMSO.
# HSD17b13 enzyme was diluted in 1× assay buffer to the desired enzyme concentration based on the specific activity of the enzyme lot. 20 uL of diluted enzyme was added to each well along with 2.5 uL of 10× inhibitor solution. Assay plate was incubated at RT for 20 minutes, and then 2.5 uL of a 10× substrate/cofactor mix was added to each well for a final concentration of 50 uM estradiol and 1 mMNAD+. Assay plate was incubated at 37° C. for 3 hours. NAD(P)H-Glo™ Detection System reagents were prepared according to manufacturer's specifications, and 25 uL was added to each well. After incubating for 1 hour at RT, luminescence was measured.
# Sequence of Recombinant human HSD17B13 enzyme (Q7Z5P4 20-300): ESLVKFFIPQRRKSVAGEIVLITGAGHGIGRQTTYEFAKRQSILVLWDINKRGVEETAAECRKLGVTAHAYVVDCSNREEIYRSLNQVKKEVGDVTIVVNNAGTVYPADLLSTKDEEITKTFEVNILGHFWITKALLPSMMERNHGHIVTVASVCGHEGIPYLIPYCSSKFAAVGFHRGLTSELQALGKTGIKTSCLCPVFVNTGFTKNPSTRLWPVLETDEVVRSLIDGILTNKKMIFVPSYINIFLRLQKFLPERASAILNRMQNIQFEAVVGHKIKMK
row,SMILES,IC50 [nM]
1,"Oc1cncc(-n2ncc3cc(-c4ccc(O)c(Cl)c4)ccc32)c1 [Compound 17, 5-(5-(3-Chloro-4-hydroxyphenyl)-1H-indazol-1-yl)pyridin-3-ol]",100 to 1000
2,"CC1(C)CC=C(c2cc3cnn(-c4cc(O)c(F)c(C(F)(F)F)c4)c3cc2F)CC1 [Compound 18, 5-(5-(4,4-Dimethylcyclohex-1-en-1-yl)-6-fluoro-1H-indazol-1-yl)-2-fluoro-3-(trifluoromethyl)phenol]",100 to 1000
3,"CC1(C)CC=C(c2ccc3c(cnn3-c3cc(O)c(F)c(C(F)(F)F)c3)c2)CC1 [Compound 18.01, 5-(5-(4,4-Dimethylcyclohex-1-en-1-yl)-1H-indazol-1-yl)-2-fluoro-3-(trifluoromethyl)phenol]",100 to 1000
4,"CS(=O)(=O)N1CCN(c2cc3cnn(-c4cc(O)c(F)c(C(F)(F)F)c4)c3cc2Cl)CC1 [Compound 19, 5-(6-Chloro-5-(4-(methylsulfonyl)piperazin-1-yl)-1H-indazol-1-yl)-2-fluoro-3-(trifluoromethyl)phenol]",< 100
5,"CC1(C)CN(S(C)(=O)=O)CCN1c1cc2cnn(-c3cc(O)c(F)c(C(F)(F)F)c3)c2cn1 [Compound 19.04, 5-(5-(2,2-Dimethyl-4-(methylsulfonyl)piperazin-1-yl)-1H-pyrazolo[3,4-c]pyridine-1-yl)-2-fluoro-3-(trifluoromethyl)phenol]",100 to 1000
6,"CS(=O)(=O)N1CCN(c2cc3cnn(-c4ccc(F)c(O)c4)c3cn2)CC1 [Compound 19.09, 2-Fluoro-5-(5-(4-(methylsulfonyl)piperazin-1-yl)-1H-pyrazolo[3,4-c]pyridine-1-yl)phenol]",1000 to 30000
7,"CS(=O)(=O)N1CCN(c2cc3cn(-c4ccc(F)c(O)c4)nc3cn2)CC1 [Compound 19.10, 2-Fluoro-5-(5-(4-(methylsulfonyl)piperazin-1-yl)-2H-pyrazolo[3,4-c]pyridine-2-yl)phenol]",1000 to 30000
8,"CS(=O)(=O)N1CCN(c2cc3cnn(-c4cccc(O)c4F)c3cn2)CC1 [Compound 19.11, 2-Fluoro-3-(5-(4-(methylsulfonyl)piperazin-1-yl)-1H-pyrazolo[3,4-c]pyridine-1-yl)phenol]",1000 to 30000
9,"CS(=O)(=O)N1CCN(c2cc3cnn(-c4cc(O)cc(OC(F)(F)F)c4)c3cn2)CC1 [Compound 19.12, 3-(5-(4-(Methylsulfonyl)piperazin-1-yl)-1H-pyrazolo[3,4-c]pyridine-1-yl)-5-(trifluoromethoxy)phenol]",1000 to 30000
10,"CS(=O)(=O)N1CCN(c2cc3cn(-c4cc(O)cc(OC(F)(F)F)c4)nc3cn2)CC1 [Compound 19.13, 3-(5-(4-(Methylsulfonyl)piperazin-1-yl)-2H-pyrazolo[3,4-c]pyridin-2-yl)-5-(trifluoromethoxy)phenol]",1000 to 30000
11,"CS(=O)(=O)N1CCN(c2cc3cn(-c4ccc(Cl)c(O)c4)nc3cn2)CC1 [Compound 19.15, 2-Chloro-5-(5-(4-(methylsulfonyl)piperazin-1-yl)-2H-pyrazolo[3,4-c]pyridine-2-yl)phenol]",1000 to 30000
12,"CS(=O)(=O)N1CCN(c2cc3cnn(-c4cc(O)c(Cl)c(F)c4)c3cn2)CC1 [Compound 19.17, 2-Chloro-3-fluoro-5-(5-(4-(methylsulfonyl)piperazin-1-yl)-1H-pyrazolo[3,4-c]pyridine-1-yl)phenol]",1000 to 30000
13,"CS(=O)(=O)N1CCN(c2cc3cn(-c4cc(O)c(Cl)c(F)c4)nc3cn2)CC1 [Compound 19.18, 2-Chloro-3-fluoro-5-(5-(4-(methylsulfonyl)piperazin-1-yl)-2H-pyrazolo[3,4-c]pyridine-2-yl)phenol]",100 to 1000
14,"CS(=O)(=O)N1CCN(c2cc3cn(-c4cc(O)c(F)cn4)nc3cn2)CC1 [Compound 19.20, 5-Fluoro-2-(5-(4-(methylsulfonyl)piperazin-1-yl)-2H-pyrazolo[3,4-c]pyridine-2-yl)pyridine-4-ol]",1000 to 30000
15,"CS(=O)(=O)N1CCN(c2cc3cnn(-c4cc(O)c(F)c(Cl)c4)c3cn2)CC1 [Compound 19.21, 3-Chloro-2-fluoro-5-(5-(4-(methylsulfonyl)piperazin-1-yl)-1H-pyrazolo[3,4-c]pyridine-1-yl)phenol]",100 to 1000
16,"CS(=O)(=O)N1CCN(c2cc3cn(-c4cc(O)c(F)c(Cl)c4)nc3cn2)CC1 [Compound 19.22, 3-Chloro-2-fluoro-5-(5-(4-(methylsulfonyl)piperazin-1-yl)-2H-pyrazolo[3,4-c]pyridine-2-yl)phenol]",100 to 1000
17,"CS(=O)(=O)N1CCN(c2cc3cnn(-c4ccc(C(F)(F)F)c(O)c4F)c3cn2)CC1 [Compound 19.25, 2-Fluoro-3-(5-(4-(methylsulfonyl)piperazin-1-yl)-1H-pyrazolo[3,4-c]pyridine-1-yl)-6-(trifluoromethyl)phenol]",1000 to 30000
18,"CS(=O)(=O)N1CCN(c2cc3cn(-c4ccc(C(F)(F)F)c(O)c4F)nc3cn2)CC1 [Compound 19.26, 2-Fluoro-3-(5-(4-(methylsulfonyl)piperazin-1-yl)-2H-pyrazolo[3,4-c]pyridine-2-yl)-6-(trifluoromethyl)phenol]",1000 to 30000

# Further lines, results first:
row,IC50 [nM],SMILES
1,1000 to 30000,"Oc1ccc(-c2ccc3c(cnn3-c3cc(O)c(F)c(F)c3)c2)nc1 [Compound 16, 6-(1-(3,4-Difluoro-5-hydroxyphenyl)-1H-indazol-5-yl)pyridine-3-ol]"
2,100 to 1000,"Oc1cnc(-c2ccc3c(cnn3-c3cc(O)c(F)c(F)c3)c2)c(Cl)c1 [Compound 16.01, 5-Chloro-6-(1-(3,4-difluoro-5-hydroxyphenyl)-1H-indazol-5-yl)pyridine-3-ol]"
3,1000 to 30000,"Oc1cnc(-c2ccc3c(cnn3-c3cc(O)c(F)c(F)c3)c2)nc1 [Compound 16.02, 2-(1-(3,4-Difluoro-5-hydroxyphenyl)-1H-indazol-5-yl)pyrimidin-5-ol]"
4,100 to 1000,"Oc1ccc(-c2ccc3c(cnn3-c3cc(O)c(F)c(F)c3)c2)cn1 [Compound 16.03, 5-(1-(3,4-Difluoro-5-hydroxyphenyl)-1H-indazol-5-yl)pyridine-2-ol]"
5,100 to 1000,"CC1(C)CC=C(c2ccc3nn(-c4cc(O)c(F)c(C(F)(F)F)c4)cc3c2)CC1 [Compound 18.02, 5-(5-(4,4-Dimethylcyclohex-1-en-1-yl)-2H-indazol-2-yl)-2-fluoro-3-(trifluoromethyl)phenol]"
6,100 to 1000,"CS(=O)(=O)N1CCN(c2cc3cnn(-c4cc(O)c(F)c(C(F)(F)F)c4)c3cc2F)CC1 [Compound 19.01, 2-Fluoro-5-(6-fluoro-5-(4-(methylsulfonyl)piperazin-1-yl)-1H-indazol-1-yl)-3-(trifluoromethyl)phenol]"
7,100 to 1000,"CS(=O)(=O)N1CCN(c2cc3cnn(-c4cc(O)c(F)c(Cl)c4)c3cc2F)CC1 [Compound 19.02, 3-Chloro-2-fluoro-5-(6-fluoro-5-(4-(methylsulfonyl)piperazin-1-yl)-1H-indazol-1-yl)phenol]"
8,100 to 1000,"CS(=O)(=O)N1CCN(c2cc3cnn(-c4ccc(Cl)c(O)c4F)c3cc2F)CC1 [Compound 19.03, 6-Chloro-2-fluoro-3-(6-fluoro-5-(4-(methylsulfonyl)piperazin-1-yl)-1H-indazol-1-yl)phenol]"
9,100 to 1000,"CC1(C)CN(S(C)(=O)=O)CCN1c1cc2cn(-c3cc(O)c(F)c(C(F)(F)F)c3)nc2cn1 [Compound 19.05, 5-(5-(2,2-Dimethyl-4-(methylsulfonyl)piperazin-1-yl)-2H-pyrazolo[3,4-c]pyridine-2-yl)-2-fluoro-3-(trifluoromethyl)phenol]"
10,100 to 1000,"CS(=O)(=O)N1CCN(c2cc3cnn(-c4cc(C(F)(F)F)cc(O)c4F)c3cn2)CC1 [Compound 19.06, 2-Fluoro-3-(5-(4-(methylsulfonyl)piperazin-1-yl)-1H-pyrazolo[3,4-c]pyridine-1-yl)-5-(trifluoromethyl)phenol]"
11,100 to 1000,"CS(=O)(=O)N1CCN(c2cc3cnn(-c4ccc(F)c(O)c4F)c3cn2)CC1 [Compound 19.07, 2,6-Difluoro-3-(5-(4-(methylsulfonyl)piperazin-1-yl)-1H-pyrazolo[3,4-c]pyridine-1-yl)phenol]"
12,1000 to 30000,"CS(=O)(=O)N1CCN(c2cc3cn(-c4ccc(F)c(O)c4F)nc3cn2)CC1 [Compound 19.08, 2,6-Difluoro-3-(5-(4-(methylsulfonyl)piperazin-1-yl)-2H-pyrazolo[3,4-c]pyridine-2-yl)phenol]"
13,1000 to 30000,"CS(=O)(=O)N1CCN(c2cc3cnn(-c4ccc(Cl)c(O)c4)c3cn2)CC1 [Compound 19.14, 2-Chloro-5-(5-(4-(methylsulfonyl)piperazin-1-yl)-1H-pyrazolo[3,4-c]pyridine-1-yl)phenol]"
14,1000 to 30000,"CS(=O)(=O)N1CCN(c2cc3cnn(-c4cc(O)cc(C(F)(F)F)c4)c3cn2)CC1 [Compound 19.16, 3-(5-(4-(Methylsulfonyl)piperazin-1-yl)-1H-pyrazolo[3,4-c]pyridine-1-yl)-5-(trifluoromethyl)phenol]"
15,1000 to 30000,"CS(=O)(=O)N1CCN(c2cc3cnn(-c4cc(O)c(F)cn4)c3cn2)CC1 [Compound 19.19, 5-Fluoro-2-(5-(4-(methylsulfonyl)piperazin-1-yl)-1H-pyrazolo[3,4-c]pyridine-1-yl)pyridine-4-ol]"
16,1000 to 30000,"Cc1cc(-n2ncc3cc(N4CCN(S(C)(=O)=O)CC4)ncc32)cc(O)c1F [Compound 19.23, 2-Fluoro-3-methyl-5-(5-(4-(methylsulfonyl)piperazin-1-yl)-1H-pyrazolo[3,4-c]pyridine-1-yl)phenol]"
17,1000 to 30000,"Cc1cc(-n2cc3cc(N4CCN(S(C)(=O)=O)CC4)ncc3n2)cc(O)c1F [Compound 19.24, 2-Fluoro-3-methyl-5-(5-(4-(methylsulfonyl)piperazin-1-yl)-2H-pyrazolo[3,4-c]pyridine-2-yl)phenol]"
